From PubChem BioAssay (NCI)
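Each compound was tested at five concentrations against cells in 96-well plates for 48 hours. At the GI50, growth is halved. Definition used: TGI = concentration required for complete inhibition of growth.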

How the values were obtained:
Assay in all cases: NCI anticancer screen, dose series, 48 h
MDA-MB-468 breast = system: MDA-MB-468 breast
K-562 leukemia = system: K-562 leukemia
NCI-H226 lung = system: NCI-H226 lung
RPMI-8226 leukemia = system: RPMI-8226 leukemia
HL-60(TB) leukemia = system: HL-60(TB) leukemia
NCI-H23 lung = system: NCI-H23 lung
HOP-62 NSCLC = system: HOP-62 NSCLC
KM12 colon = system: KM12 colon
RXF 393 renal = system: RXF 393 renal
HCC-2998 colon = system: HCC-2998 colon
M14 melanoma = system: M14 melanoma
786-0 renal = system: 786-0 renal
CCRF-CEM leukemia = system: CCRF-CEM leukemia
ACHN renal = system: ACHN renal
DU-145 prostate = system: DU-145 prostate
A549 NSCLC = system: A549 NSCLC
MOLT-4 leukemia = system: MOLT-4 leukemia
HT29 colon = system: HT29 colon
PC-3 prostate = system: PC-3 prostate
SF-539 CNS = system: SF-539 CNS
SW-620 colon = system: SW-620 colon
UACC-257 melanoma = system: UACC-257 melanoma
LOX IMVI melanoma = system: LOX IMVI melanoma
SNB-19 CNS = system: SNB-19 CNS
T-47D breast = system: T-47D breast
SK-MEL-28 melanoma = system: SK-MEL-28 melanoma
A498 renal = system: A498 renal
UACC-62 melanoma = system: UACC-62 melanoma
IGROV1 ovarian = system: IGROV1 ovarian
OVCAR-4 ovarian = system: OVCAR-4 ovarian
HS 578T breast = system: HS 578T breast
SR leukemia = system: SR leukemia
MALME-3M melanoma = system: MALME-3M melanoma
TK-10 renal = system: TK-10 renal
SK-MEL-5 melanoma = system: SK-MEL-5 melanoma
U251 CNS = system: U251 CNS
EKVX NSCLC = system: EKVX NSCLC
NCI/ADR-RES ovarian = system: NCI/ADR-RES ovarian
SF-295 CNS = system: SF-295 CNS
HCT-15 colon = system: HCT-15 colon
MCF7 breast = system: MCF7 breast
SN12C renal = system: SN12C renal
MDA-MB-435 = system: MDA-MB-435
SK-OV-3 ovarian = system: SK-OV-3 ovarian
NCI-H460 lung = system: NCI-H460 lung
BT-549 breast = system: BT-549 breast
NCI-H522 lung = system: NCI-H522 lung
OVCAR-3 ovarian = system: OVCAR-3 ovarian
HCT-116 colon = system: HCT-116 colon
COLO 205 colon = system: COLO 205 colon
OVCAR-8 ovarian = system: OVCAR-8 ovarian
OVCAR-5 ovarian = system: OVCAR-5 ovarian
HOP-92 NSCLC = system: HOP-92 NSCLC
SF-268 CNS = system: SF-268 CNS
CAKI-1 renal = system: CAKI-1 renal

O=C(O)c1ccc(Oc2nccc(-c3c(-c4ccc(F)cc4)ncn3C3CCNCC3)n2)cc1
GI50 (MDA-MB-468 breast): > 25 µM | TGI (MDA-MB-468 breast): > 25 µM

CNC(=O)c1ccc(N2C(=S)N(c3ccc(C#N)c(C(F)(F)F)c3)C(=O)C2(C)C)cc1F
GI50 (MDA-MB-468 breast): 17.1 µM | TGI (MDA-MB-468 breast): > 75.7 µM

NCCCCn1c(SCCc2c[nH]c3ccccc23)nnc1-c1ccc2ccccc2n1
GI50 (K-562 leukemia): 5.58 µM | TGI (K-562 leukemia): 13.2 µM | GI50 (NCI-H226 lung): 5.29 µM | TGI (NCI-H226 lung): 10.8 µM | GI50 (RPMI-8226 leukemia): 5.41 µM | TGI (RPMI-8226 leukemia): 13.9 µM | GI50 (HL-60(TB) leukemia): 4.99 µM | TGI (HL-60(TB) leukemia): 11.4 µM | GI50 (MDA-MB-468 breast): 4.94 µM | TGI (MDA-MB-468 breast): 9.58 µM | GI50 (NCI-H23 lung): 5.57 µM | TGI (NCI-H23 lung): 10.5 µM | GI50 (HOP-62 NSCLC): 5.35 µM | TGI (HOP-62 NSCLC): 10.5 µM | GI50 (KM12 colon): 6.54 µM | TGI (KM12 colon): 12.3 µM | GI50 (RXF 393 renal): 4.8 µM | TGI (RXF 393 renal): 9.4 µM | GI50 (HCC-2998 colon): 6.01 µM | TGI (HCC-2998 colon): 10.9 µM | GI50 (M14 melanoma): 5.48 µM | TGI (M14 melanoma): 10.4 µM | GI50 (786-0 renal): 5.9 µM | TGI (786-0 renal): 10.9 µM | GI50 (CCRF-CEM leukemia): 7.21 µM | TGI (CCRF-CEM leukemia): 20.3 µM | GI50 (ACHN renal): 5.42 µM | TGI (ACHN renal): 10.3 µM | GI50 (DU-145 prostate): 6.51 µM | TGI (DU-145 prostate): 12.2 µM | GI50 (A549 NSCLC): 5.1 µM | TGI (A549 NSCLC): 9.87 µM | GI50 (MOLT-4 leukemia): 5.47 µM | TGI (MOLT-4 leukemia): 13.1 µM | GI50 (HT29 colon): 5.28 µM | TGI (HT29 colon): 10.4 µM | GI50 (PC-3 prostate): 5.35 µM | TGI (PC-3 prostate): 11.6 µM | GI50 (SF-539 CNS): 5.85 µM | TGI (SF-539 CNS): 10.6 µM | GI50 (SW-620 colon): 5.51 µM | TGI (SW-620 colon): 11.1 µM | GI50 (UACC-257 melanoma): 5.78 µM | TGI (UACC-257 melanoma): 11 µM | GI50 (LOX IMVI melanoma): 5.28 µM | TGI (LOX IMVI melanoma): 10 µM | GI50 (SNB-19 CNS): 6.3 µM | TGI (SNB-19 CNS): 12.8 µM | GI50 (T-47D breast): 6.08 µM | TGI (T-47D breast): 14.6 µM | GI50 (SK-MEL-28 melanoma): 5.94 µM | TGI (SK-MEL-28 melanoma): 10.8 µM | GI50 (A498 renal): 6.06 µM | TGI (A498 renal): 11.2 µM | GI50 (UACC-62 melanoma): 5.46 µM | TGI (UACC-62 melanoma): 10.2 µM | GI50 (IGROV1 ovarian): 5.84 µM | TGI (IGROV1 ovarian): 11.1 µM | GI50 (OVCAR-4 ovarian): 5.75 µM | TGI (OVCAR-4 ovarian): 12 µM | GI50 (HS 578T breast): 5.6 µM | TGI (HS 578T breast): 14.6 µM | GI50 (SR leukemia): 5.88 µM | TGI (SR leukemia): 12.7 µM | GI50 (MALME-3M melanoma): 5.35 µM | TGI (MALME-3M melanoma): 10.3 µM | GI50 (TK-10 renal): 5.91 µM | TGI (TK-10 renal): 10.9 µM | GI50 (SK-MEL-5 melanoma): 5.84 µM | TGI (SK-MEL-5 melanoma): 10.6 µM | GI50 (U251 CNS): 5.36 µM | TGI (U251 CNS): 10.2 µM | GI50 (EKVX NSCLC): 5.32 µM | TGI (EKVX NSCLC): 10.6 µM | GI50 (NCI/ADR-RES ovarian): 6.29 µM | TGI (NCI/ADR-RES ovarian): 13.4 µM | GI50 (SF-295 CNS): 5.65 µM | TGI (SF-295 CNS): 10.7 µM | GI50 (HCT-15 colon): 6.26 µM | TGI (HCT-15 colon): 11.5 µM | GI50 (MCF7 breast): 5.38 µM | TGI (MCF7 breast): 10.4 µM | GI50 (SN12C renal): 5.6 µM | TGI (SN12C renal): 10.5 µM | GI50 (MDA-MB-435): 6.27 µM | TGI (MDA-MB-435): 11.8 µM | GI50 (SK-OV-3 ovarian): 5.69 µM | TGI (SK-OV-3 ovarian): 11.2 µM | GI50 (NCI-H460 lung): 6.17 µM | TGI (NCI-H460 lung): 11.7 µM | GI50 (BT-549 breast): 5.67 µM | TGI (BT-549 breast): 10.7 µM | GI50 (NCI-H522 lung): 5.35 µM | TGI (NCI-H522 lung): 10.4 µM | GI50 (OVCAR-3 ovarian): 5.16 µM | TGI (OVCAR-3 ovarian): 10.2 µM | GI50 (HCT-116 colon): 4.74 µM | TGI (HCT-116 colon): 9.31 µM | GI50 (COLO 205 colon): 4.54 µM | TGI (COLO 205 colon): 9.3 µM | GI50 (OVCAR-8 ovarian): 5.63 µM | TGI (OVCAR-8 ovarian): 10.8 µM | GI50 (OVCAR-5 ovarian): 5.66 µM | TGI (OVCAR-5 ovarian): 10.8 µM | GI50 (HOP-92 NSCLC): 4.59 µM | TGI (HOP-92 NSCLC): 10.5 µM | GI50 (SF-268 CNS): 5.69 µM | TGI (SF-268 CNS): 12.1 µM | GI50 (CAKI-1 renal): 5.74 µM | TGI (CAKI-1 renal): 11.9 µM
